Laboratory results reported in patent publication US20220409619A1, “INHIBITORS OF HUMAN IMMUNODEFICIENCY VIRUS REPLICATION” (VIIV HEALTHCARE UK (No. 5) LIMITED, priority 2019, published 2022).

What was measured:
[1] = tested on: recombinant NL4-3 virus (nef section replaced with Renilla luciferase gene) in MT-2 cells; assay: HIV cell culture assay (antiviral activity, luciferase readout); format: cell-based; conditions: Renilla, NL43
Experimental: HIV cell culture assay—MT-2 cells, 293T cells and the proviral DNA clone of NL4-3 virus were obtained from the NIH AIDS Research and Reference Reagent Program. MT-2 cells were propagated in RPMI 1640 media supplemented with 10% heat inactivated fetal bovine serum (FBS), 100 μg/ml penicillin G and up to 100 units/mL streptomycin. The 293T cells were propagated in DMEM media supplemented with 10% heat inactivated FBS, 100 μg/mL penicillin G and 100 μg/mL streptomycin. A recombinant NL4-3 proviral clone, in which a section of the nef gene was replaced with the Renilla luciferase gene, was used to make the reference virus used in these studies. The recombinant virus was prepared through transfection of the recombinant NL4-3 proviral clone into 293T cells using Transit-293 Transfection Reagent from Mirus Bio LLC (Madison, Wis.). Supernatent was harvested after 2-3 days and the amount of virus present was titered in MT-2 cells using luciferase enzyme activity as a marker by measuring luciferase enzyme activity. Luciferase was quantitated using the EnduRen Live Cell Substrate from Promega (Madison, Wis.). Antiviral activities of compounds toward the recombinant virus were quantified by measuring luciferase activity in MT-2 cells infected for 4-5 days with the recombinant virus in the presence of serial dilutions of the compound.
The 50% effective concentration (EC50) was calculated by using the exponential form of the median effect equation where (Fa)=1/[1+(ED50/drug conc.)^m] (Johnson V A, Byington R T. Infectivity Assay. In Techniques in HIV Research. ed. Aldovini A, Walker B D. 71-76. New York: Stockton Press. 1990). Curve fitting and analysis were performed with ActivityBase XE Runner software version 9.1.0.4 using model 203 (ID Business Solutions, LTD, Guildford, UK).

[2] = Compound cytotoxicity, XTT-based colorimetric assay; format: cell-based; conditions: human; uninfected MT2 cells, day 4, XTT-based colorimetric assay
Experimental: Compound cytotoxicity and the corresponding CC50 values were determined using the same protocol as described in the antiviral assay except that uninfected cells were used. Cytotoxicity was assessed on day 4 in uninfected MT2 cells by using a XTT (2,3-bis[2-Methoxy-4-nitro-5-sulfophenyl]-2H-tetrazolium-5-carboxyanilide inner salt)-based colorimetric assay (Sigma-Aldrich, St Louis, Mo.).

| Compound | EC50 [1] | CC50 at 4 days [2] |
| --- | --- | --- |
| O=C(Cn1nc(C(F)F)c2c1C(F)(F)[C@@H]1C[C@H]21)N[C@@H](Cc1cc(F)cc(F)c1)c1nc(-c2ccc(Cl)cn2)cc(=O)n1-c1ccc(Cl)c2c(NS(=O)(=O)C3CC3)nn(CC(F)F)c12 (atropisomer, axis not shown; (P)) [Example 35, N-((S)-1-((1P)-1-(4-chloro-3-(cyclopropanesulfonamido)-1-(2,2-difluoroethyl)-1H-indazol-7-yl)-4-(5-chloropyridin-2-yl)-6-oxo-1,6-dihydropyrimidin-2-yl)-2-(3,5-difluorophenyl)ethyl)-2-((3bS,4aR)-3-(difluoromethyl)-5,5-difluoro-3b,4,4a,5-tetrahydro-1H-cyclopropa[3,4]cyclopenta[1,2-c]pyrazol-1-yl)acetamide] | 720 pM | > 100000 pM |
| Cc1cc(C)nc(-c2cc(=O)n(-c3ccc(Cl)c4c(NS(=O)(=O)C5CC5)nn(CC(F)F)c34)c([C@H](Cc3cc(F)cc(F)c3)NC(=O)Cn3nc(C(F)F)c4c3C(F)(F)[C@@H]3C[C@H]43)n2)n1 (atropisomer, axis not shown; (aR)) [Example 34, N-((S)-1-(1′-(4-chloro-3-(cyclopropanesulfonamido)-1-(2,2-difluoroethyl)-1H-indazol-7-yl)-4,6-dimethyl-6′-oxo-1′,6′-dihydro-[2,4′-bipyrimidin]-2′-yl)-2-(3,5-difluorophenyl)ethyl)-2-((3bS,4aR)-3-(difluoromethyl)-5,5-difluoro-3b,4,4a,5-tetrahydro-1H-cyclopropa[3,4]cyclopenta[1,2-c]pyrazol-1-yl)acetamide] | 240 pM | > 100000 pM |
| O=C(Cn1nc(C(F)(F)F)c2c1C(F)(F)[C@@H]1C[C@H]21)N[C@@H](Cc1cc(F)cc(F)c1)c1nc(-c2nccc(C(F)F)n2)cc(=O)n1-c1ccc(Cl)c2c(NS(=O)(=O)C3CC3)nn(CC(F)F)c12 (atropisomer, axis not shown; (aR)) [Example 32, N-((S)-1-((1′P)-1′-(4-chloro-3-(cyclopropanesulfonamido)-1-(2,2-difluoroethyl)-1H-indazol-7-yl)-4-(difluoromethyl)-6′-oxo-1′,6′-dihydro-[2,4′-bipyrimidin]-2′-yl)-2-(3,5-difluorophenyl)ethyl)-2-((3bS,4aR)-5,5-difluoro-3-(trifluoromethyl)-3b,4,4a,5-tetrahydro-1H-cyclopropa[3,4]cyclopenta[1,2-c]pyrazol-1-yl)acetamide] | 300 pM | > 100000 pM |
| CCOc1ncc(-c2cc(=O)n(-c3ccc(Cl)c4c(NS(C)(=O)=O)nn(C)c34)c([C@H](Cc3cc(F)cc(F)c3)NC(=O)Cn3nc(C(F)F)c4c3C(F)(F)[C@@H]3C[C@H]43)n2)cn1 (atropisomer, axis not shown; (P)) [Example 11, N-((S)-1-((1P)-1-(4-chloro-1-methyl-3-(methylsulfonamido)-1H-indazol-7-yl)-2′-ethoxy-6-oxo-1,6-dihydro-[4,5′-bipyrimidin]-2-yl)-2-(3,5-difluorophenyl)ethyl)-2-((3bS,4aR)-3-(difluoromethyl)-5,5-difluoro-3b,4,4a,5-tetrahydro-1H-cyclopropa[3,4]cyclopenta[1,2-c]pyrazol-1-yl)acetamide] | 810 pM | > 100000 pM |
| CCc1cnc(-c2cc(=O)n(-c3ccc(Cl)c4c(NS(=O)(=O)C5CC5)nn(CC(F)F)c34)c([C@H](Cc3cc(F)cc(F)c3)NC(=O)Cn3nc(C(F)F)c4c3C(F)(F)[C@@H]3C[C@H]43)n2)nc1 (atropisomer, axis not shown; (aR)) [Example 39, N-((S)-1-((1′P)-1′-(4-chloro-3-(cyclopropanesulfonamido)-1-(2,2-difluoroethyl)-1H-indazol-7-yl)-5-ethyl-6′-oxo-1′,6′-dihydro-[2,4′-bipyrimidin]-2′-yl)-2-(3,5-difluorophenyl)ethyl)-2-((3bS,4aR)-3-(difluoromethyl)-5,5-difluoro-3b,4,4a,5-tetrahydro-1H-cyclopropa[3,4]cyclopenta[1,2-c]pyrazol-1-yl)acetamide] | 59 pM | > 100000 pM |
| Cn1nc(NS(C)(=O)=O)c2c(Cl)ccc(-n3c([C@H](Cc4cc(F)cc(F)c4)NC(=O)Cn4nc(C(F)F)c5c4C(F)(F)[C@@H]4C[C@H]54)nc(-c4nccc(C(F)(F)F)n4)cc3=O)c21 (atropisomer, axis not shown; (aR)) [Example 6, N-((S)-1-((1′P)-1′-(4-chloro-1-methyl-3-(methylsulfonamido)-1H-indazol-7-yl)-6′-oxo-4-(trifluoromethyl)-1′,6′-dihydro-[2,4′-bipyrimidin]-2′-yl)-2-(3,5-difluorophenyl)ethyl)-2-((3bS,4aR)-3-(difluoromethyl)-5,5-difluoro-3b,4,4a,5-tetrahydro-1H-cyclopropa[3,4]cyclopenta[1,2-c]pyrazol-1-yl)acetamide] | 54 pM | > 100000 pM |
| Cn1nc(NS(C)(=O)=O)c2c(Cl)ccc(-n3c([C@H](Cc4cc(F)cc(F)c4)NC(=O)Cn4nc(C(F)F)c5c4C(F)(F)[C@@H]4C[C@H]54)nc(-c4cnccn4)cc3=O)c21 (atropisomer, axis not shown; (P)) [Example 20, N-((S)-1-((1P)-1-(4-chloro-1-methyl-3-(methylsulfonamido)-1H-indazol-7-yl)-6-oxo-4-(pyrazin-2-yl)-1,6-dihydropyrimidin-2-yl)-2-(3,5-difluorophenyl)ethyl)-2-((3bS,4aR)-3-(difluoromethyl)-5,5-difluoro-3b,4,4a,5-tetrahydro-1H-cyclopropa[3,4]cyclopenta[1,2-c]pyrazol-1-yl)acetamide] | 160 pM | > 100000 pM |
| Cn1nc(NS(C)(=O)=O)c2c(Cl)ccc(-n3c([C@H](Cc4cc(F)cc(F)c4)NC(=O)Cn4nc(C(F)F)c5c4C(F)(F)[C@@H]4C[C@H]54)nc(-c4ccc(Cl)cn4)cc3=O)c21 (atropisomer, axis not shown; (P)) [Example 24, N-((S)-1-((1P)-1-(4-chloro-1-methyl-3-(methylsulfonamido)-1H-indazol-7-yl)-4-(5-chloropyridin-2-yl)-6-oxo-1,6-dihydropyrimidin-2-yl)-2-(3,5-difluorophenyl)ethyl)-2-((3bS,4aR)-3-(difluoromethyl)-5,5-difluoro-3b,4,4a,5-tetrahydro-1H-cyclopropa[3,4]cyclopenta[1,2-c]pyrazol-1-yl)acetamide] | 370 pM | > 100000 pM |
| Cn1nc(NS(C)(=O)=O)c2c(Cl)ccc(-n3c([C@H](Cc4cc(F)cc(F)c4)NC(=O)Cn4nc(C(F)F)c5c4C(F)(F)[C@@H]4C[C@H]54)nc(-c4cccc(C(F)(F)F)n4)cc3=O)c21 (atropisomer, axis not shown; (P)) [Example 7, N-((S)-1-((1P)-1-(4-chloro-1-methyl-3-(methylsulfonamido)-1H-indazol-7-yl)-6-oxo-4-(6-(trifluoromethyl)pyridin-2-yl)-1,6-dihydropyrimidin-2-yl)-2-(3,5-difluorophenyl)ethyl)-2-((3bS,4aR)-3-(difluoromethyl)-5,5-difluoro-3b,4,4a,5-tetrahydro-1H-cyclopropa[3,4]cyclopenta[1,2-c]pyrazol-1-yl)acetamide] | 530 pM | > 100000 pM |
| CCOc1cnc(-c2cc(=O)n(-c3ccc(Cl)c4c(NS(=O)(=O)C5CC5)nn(CC(F)F)c34)c([C@H](Cc3cc(F)cc(F)c3)NC(=O)Cn3nc(C(F)F)c4c3C(F)(F)[C@@H]3C[C@H]43)n2)nc1 (atropisomer, axis not shown; (aR)) [Example 29, N-((S)-1-((1′P)-1′-(4-chloro-3-(cyclopropanesulfonamido)-1-(2,2-difluoroethyl)-1H-indazol-7-yl)-5-ethoxy-6′-oxo-1′,6′-dihydro-[2,4′-bipyrimidin]-2′-yl)-2-(3,5-difluorophenyl)ethyl)-2-((3bS,4aR)-3-(difluoromethyl)-5,5-difluoro-3b,4,4a,5-tetrahydro-1H-cyclopropa[3,4]cyclopenta[1,2-c]pyrazol-1-yl)acetamide] | 52 pM | > 100000 pM |
| O=C(Cn1nc(C(F)F)c2c1C(F)(F)[C@@H]1C[C@H]21)N[C@@H](Cc1cc(F)cc(F)c1)c1nc(-c2ncc(F)cn2)cc(=O)n1-c1ccc(Cl)c2c(NS(=O)(=O)C3CC3)nn(CC(F)F)c12 (atropisomer, axis not shown; (aR)) [Example 30, N-((S)-1-((1′P)-1′-(4-chloro-3-(cyclopropanesulfonamido)-1-(2,2-difluoroethyl)-1H-indazol-7-yl)-5-fluoro-6′-oxo-1′,6′-dihydro-[2,4′-bipyrimidin]-2′-yl)-2-(3,5-difluorophenyl)ethyl)-2-((3bS,4aR)-3-(difluoromethyl)-5,5-difluoro-3b,4,4a,5-tetrahydro-1H-cyclopropa[3,4]cyclopenta[1,2-c]pyrazol-1-yl)acetamide] | 200 pM | > 100000 pM |
